Values joined by “and” are separate entries in the source; they are usually repeats but may differ in a detail not shown here. Equal entries are not always repeated.
biological target: Serine/threonine-protein kinase pim-2 (Homo sapiens) (UniProt Q9P1W9); assay: compound-induced PIM2 thermal stabilization – biophysical, human, melting temperature shift (AID 505); settings: Recombinant PIM2 thermal shift, Tm change; at 10 µM; buffer 10 mM HEPES; pH 7.5; NaCl 100 mM; with 50 µM L-Arg/L-Glu (1:1); active compounds read high
Sequence (Q9P1W9 whole entry, looked up): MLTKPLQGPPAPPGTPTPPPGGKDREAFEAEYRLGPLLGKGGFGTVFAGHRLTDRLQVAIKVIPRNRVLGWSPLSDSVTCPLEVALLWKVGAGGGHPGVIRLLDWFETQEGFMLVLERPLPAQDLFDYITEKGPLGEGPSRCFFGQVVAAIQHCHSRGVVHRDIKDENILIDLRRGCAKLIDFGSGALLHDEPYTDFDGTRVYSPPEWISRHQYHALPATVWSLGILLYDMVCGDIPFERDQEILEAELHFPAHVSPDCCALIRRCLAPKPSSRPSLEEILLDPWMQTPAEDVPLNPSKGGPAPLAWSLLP

SMILES | Tm shift
CN(C)CCCn1cc(C2=C(c3c[nH]c4ccccc34)C(=O)NC2=O)c2ccccc21 | 4.21 Celsius
O=C1C(=O)C(c2cc(O)c(O)c(O)c2)Oc2cc(O)cc(O)c21 (configuration not stated) | 4.13 Celsius
NC1=N/C(=C2/CCNC(=O)c3[nH]c(Br)cc32)C(=O)N1 | 3.73 Celsius
Clc1cccc(-c2cnc3ccc(NC4CCOCC4)nn23)c1 | 5.64 Celsius
Fc1ccc(CNc2ccc3ncc(-c4ccco4)n3n2)cc1 | 3.36 Celsius
Clc1cccc(-c2cnc3ccc(NCCc4ccccn4)nn23)c1 | 3.46 Celsius
CC(=O)c1cccc(-c2cnc3ccc(NCC4CC4)nn23)c1 | 4.29 Celsius
O=C1NC(=O)c2c1c1c3ccccc3n3c1c1c2c2ccccc2n1[C@@H]1CCC3O1 | 11.1 Celsius
O=c1c(O)c(-c2cc(O)c(O)c(O)c2)oc2cc(O)cc(O)c12 | 4.74 Celsius
Clc1cccc(Nc2ccn3ncc(-c4ccsc4)c3n2)c1 | 3.45 Celsius
O=C1NC(=O)c2c1c1c3ccccc3[nH]c1c1[nH]c3cc(Br)ccc3c21 | 6.31 Celsius

same assay, conditions: Recombinant PIM2 thermal shift, Tm change; at 10 µM; buffer 10 mM HEPES; pH 7.5; NaCl 150 mM; with 50 µM L-Arg/L-Glu (1:1); active compounds read high

SMILES | Tm shift
O=C1NCc2c1c1c3ccccc3[nH]c1c1[nH]c3ccccc3c21 | 5.2 Celsius
O=c1oc2cc(O)ccc2c2oc3cc(O)ccc3c12 | 4.4 Celsius
CC(C)[C@@H](CO)Nc1ccc2ncc(-c3cccc(C(F)(F)F)c3)n2n1 | 4.39 Celsius
CN(C)CCCn1cc(C2=C(c3c[nH]c4ccccc34)C(=O)NC2=O)c2ccccc21 | 6.1 Celsius
CCC(CO)Nc1ccc2ncc(-c3ccc(O)cc3)n2n1 (configuration not stated) | 4.74 Celsius
Fc1cccc(-c2cnc3ccc(NC4CCOCC4)nn23)c1 | 3.17 Celsius
COc1cc(/C=C/C(=O)CC(=O)/C=C/c2ccc(O)c(OC)c2)ccc1O | 4.3 Celsius
CC(C)[C@@H](CO)Nc1ccc2ncc(-c3cccc(OC(F)(F)F)c3)n2n1 | 4.06 Celsius
O=C1C(=O)C(c2ccc(O)cc2O)Oc2cc(O)cc(O)c21 (configuration not stated) | 6.2 Celsius
CC1N=C2SC=CN2C(=O)C1CCN1CCC(=C(c2ccccc2)c2ccc(F)cc2)CC1 (configuration not stated) | 4.3 Celsius and 3.8 Celsius
O=C1C(=O)C(c2cccc(O)c2)Oc2ccccc21 (configuration not stated) | 4.5 Celsius
Oc1cc(O)c2c(c1)O[C@H](c1ccc(O)c(O)c1)[C@@H](O)C2 | 3.2 Celsius
Brc1c(Br)c(Br)c2n[nH]nc2c1Br | 4.25 Celsius
O=C1NC(=O)C(c2c[nH]c3ccccc23)=C1c1c[nH]c2ccccc12 | 4.02 Celsius
O=C1c2ccccc2-c2n[nH]c3cccc1c23 | 4.6 Celsius
Cc1c(O)cc(O)c2c1OC(c1ccc(O)c(O)c1)C(=O)C2=O (configuration not stated) | 4.1 Celsius
NC1=N/C(=C2/CCNC(=O)c3[nH]c(Br)cc32)C(=O)N1 | 3.7 Celsius
O=c1[nH]c(O)c2c1c1c3ccccc3nc1n1cncc21 | 8 Celsius
N=C(N)SCCCn1cc(C2=C(c3c[nH]c4ccccc34)C(=O)NC2=O)c2ccccc21 | 5.64 Celsius
CC(C)(C)c1nc2c3cc[nH]c(=O)c3c3cc(F)ccc3c2[nH]1 | 5.1 Celsius
Cc1cc(O)c2c(c1)C(=O)c1cc(O)cc(O)c1C2=O | 4.2 Celsius
O=c1cc(-c2ccc(O)cc2)oc2cc(O)cc(O)c12 | 3.8 Celsius
CC(=O)c1cccc(-c2cnc3ccc(N[C@H](CO)C(C)C)nn23)c1 | 3.77 Celsius
CCC(CO)Nc1ccc2ncc(-c3cccc(C(C)=O)c3)n2n1 (configuration not stated) | 4.59 Celsius
O=c1c(O)c(-c2ccc(O)c(O)c2)oc2cc(O)ccc12 | 6.11 Celsius
CCN1/C(=C/C(C)=O)Sc2ccc(OC)cc21 | 3.1 Celsius

SMILES | Tm shift
NCCNc1ncc(C(N)=O)c(Nc2cccc(C(F)(F)F)c2)n1 | 5.8 Celsius
O=c1c(-c2ccc(O)cc2)coc2cc(O)cc(O)c12 | 3.3 Celsius
Cn1cc(C2=C(c3c4n(c5ccccc35)CCC(CN)C4)C(=O)NC2=O)c2ccccc21 (configuration not stated) | 3.6 Celsius
CC(C)[C@@H](CO)Nc1ccc2ncc(-c3cccc(Cl)c3)n2n1 | 4.69 Celsius
O=Nc1c(-c2c(O)[nH]c3ccc(S(O)(O)O)cc23)[nH]c2ccccc12 | 4.1 Celsius
COc1cc(C2Oc3cc(O)cc(O)c3C(=O)C2=O)ccc1O (configuration not stated) | 7.24 Celsius
Cc1c2ccncc2c(C)c2c1[nH]c1ccccc12 | 4.8 Celsius
O=C1Nc2ccc(I)cc2/C1=C/c1cc(Br)c(O)c(Br)c1 | 10.2 Celsius
COC(=O)c1cnc2oc3ccc(O)cc3c2c1-c1ccccc1 | 6.25 Celsius
COc1c(C=O)c(O)cc2c1C(=O)c1ccccc1C2=O | 3.3 Celsius
CCC(CO)Nc1ccc2ncc(-c3ccc(C(=O)O)cc3)n2n1 (configuration not stated) | 4.94 Celsius
O=c1cc(-c2ccc(O)c(O)c2)oc2cc(O)cc(O)c12 | 4.14 Celsius
FC(F)(F)Oc1cccc(-c2cnc3ccc(NC4CCOCC4)nn23)c1 | 5.78 Celsius
O=C1Nc2ccccc2/C1=C\c1c(Cl)[nH]c2ccccc12 | 3.4 Celsius
CCC(CO)Nc1ccc2ncc(-c3ccc(F)c(Cl)c3)n2n1 (configuration not stated) | 5.54 Celsius
O=c1c(O)c(-c2ccc(O)cc2)oc2cc(O)cc(O)c12 | 5.81 Celsius
O=c1c(O)c(-c2ccc(O)c(O)c2)oc2cc(O)cc(O)c12 | 8.58 Celsius and 7.16 Celsius
O=C1C(=O)C(c2ccc(O)cc2)Oc2cc(O)cc(O)c21 (configuration not stated) | 5.62 Celsius
CCC(CO)Nc1ccc2ncc(-c3cccc(OC(F)(F)F)c3)n2n1 (configuration not stated) | 5.92 Celsius
CC(O)(O)C1(O)C[C@@H]2O[C@@]1(C)n1c3ccccc3c3c4c(c5c6ccccc6n2c5c31)C(=O)NC4 (some centres not stated) | 3.79 Celsius
N#C/C(=C1\Nc2ccccc2S1)c1ccnc(NCCc2cccnc2)n1 | 7.4 Celsius
O=C1C(=O)C(c2ccccc2)Oc2ccc(O)cc21 (configuration not stated) | 3.1 Celsius
CCn1cnc2c(Nc3cccc(Cl)c3)nc(N[C@@H]3CCCC[C@@H]3N)nc21 | 5.45 Celsius
NCCCn1cc(C2=C(c3c[nH]c4ccccc34)C(=O)NC2=O)c2ccccc21 | 5.63 Celsius
O=c1c(-c2ccc(O)cc2)coc2cc(O)ccc12 | 3.3 Celsius

— PubChem BioAssay AID505 (SGCOxCompounds, 2006)
